The values below come from patent publication US20110045101A1, “FUNGICIDAL SUBSTITUTED AZOLES” (E.I. Du Pont De Nemours and Company, priority 2009, published 2011).

Marks after values point to notes of the source that are not given here.

What all share (type): in vivo
Holding throughout (conditions): 100 = 100% disease control

One test relates to Botrytis cinerea. The test is described as follows: Test C: tomato Botrytis on tomato seedlings, sprayed the day before inoculation, visual disease rating. The method, boiled down:
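Spray to run-off on tomato seedlings; test conc. 200 ppm (≈500 g/ha), some entries 40 ppm. Formulation: acetone 3% of final vol., then acetone/water 50:50 + 250 ppm polyhydric alcohol ester surfactant.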

A further test has as its system Alternaria solani. The test is described as follows: Test D: tomato early blight, sprayed the day before inoculation, visual disease rating. The method, boiled down:
(§1)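 Spray suspension: acetone 3% of final volume, then 50/50 acetone/water plus 250 ppm Trem® 014. Applied to run-off on seedlings at 200 ppm (≈500 g/ha); starred entries tested at 40 ppm.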

Another test concerns Septoria nodorum. The test is described as follows: Test F: wheat glume blotch on wheat seedlings, sprayed the day before inoculation, visual disease rating. Summed up:
as §1

A further test deals with Septoria tritici. The test is described as follows: Test G: wheat leaf blotch on wheat seedlings, sprayed the day before inoculation, visual disease rating. The method, boiled down: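 Spray to run-off, 200 ppm (≈500 g/ha; starred = 40 ppm), acetone/water 50/50 + 250 ppm Trem® 014. Spore inoculation +1 d. 24° C saturated 48 h → 20° C 19 d. Visual rating.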
Test [1] deals with Puccinia recondita f. sp. tritici. The test is described as follows: Test H: wheat leaf rust, test suspension sprayed after inoculation of wheat seedlings, visual disease rating. The text has this: General protocol for preparing test suspensions for Tests A-J: The test compounds were first dissolved in acetone in an amount equal to 3% of the final volume and then suspended at the desired concentration (in ppm) in acetone and purified water (50/50 mix) containing 250 ppm of the surfactant Trem® 014 (polyhydric alcohol esters). The resulting test suspensions were then used in tests A-J. Spraying a 200 ppm test suspension to the point of run-off on the test plants was the equivalent of a rate of 500 g/ha. […] Wheat seedlings were inoculated with a spore suspension of Puccinia recondita f. sp. tritici (the causal agent of wheat leaf rust) and incubated in a saturated atmosphere at 20° C. for 24 h, and then moved to a growth chamber at 20° C. for 2 days. […] A dash (-) indicates no test results. All results are for 200 ppm except where followed by “*”, which indicates 40 ppm.

Test [2] has the same test system. The test is described as follows: Test I: wheat leaf rust on wheat seedlings, sprayed the day before inoculation, visual disease rating. The method, boiled down: as §1
Test [3] concerns Erysiphe graminis f. sp. tritici. In words: Test J: wheat powdery mildew on wheat seedlings, sprayed the day before inoculation, visual disease rating. The method, boiled down:
as §1

The mark [4] stands for this setting: 200 ppm, 0 = no control relative to controls.

With `Fc1cccc(F)c1-c1c(Cl)nc(Cl)n1-c1ccc(Cl)nc1` [compound 592], in the test on Botrytis cinerea (setting [4]), the “Test C disease control rating” value worked out at 100%. In addition, in the test with Alternaria solani (setting [4]), the “Test D disease control rating” value is given as 100%. For the same compound, the “Test F disease control rating” value in the test with Septoria nodorum (setting [4]) was 100%. The “Test G disease control rating” value in the test on Septoria tritici (setting [4]) is 96%. Moreover, the “Test H disease control rating” value in test [1] (setting [4]) turned out to be 100%. Besides, in test [2] (setting [4]), the “Test I disease control rating” value came to 100%. Also, in test [3] (setting [4]), the “Test J disease control rating” value is recorded as 100%.

Turning to `Fc1ccc(F)c(-c2c(Br)ncn2-c2ccc(Cl)cc2)c1F` [compound 330], the “Test C disease control rating” value in the test on Botrytis cinerea (setting [4]) stood at 100%. Moreover, the “Test D disease control rating” value in the test on Alternaria solani (setting [4]) stood at 100%. The “Test F disease control rating” value in the test with Septoria nodorum (setting [4]) is 0%. Moreover, in the test with Septoria tritici (setting [4]), the “Test G disease control rating” value worked out at 96%. Besides, the “Test H disease control rating” value in test [1] (setting [4]) turned out to be 9%. Besides, the “Test I disease control rating” value in test [2] (setting [4]) was found to be 98%. Also, the “Test J disease control rating” value in test [3] (setting [4]) is 99%.

`COc1ccc(F)c(-c2c(Cl)nc(Cl)n2-c2ccc(C#N)cc2)c1F` [compound 552]: in the test on Botrytis cinerea (setting [4]), the “Test C disease control rating” value is listed as 99%. For the same compound, the “Test D disease control rating” value in the test on Alternaria solani (setting [4]) came to 100%. In addition, the “Test F disease control rating” value in the test with Septoria nodorum (setting [4]) is reported as 0%. Also, the “Test G disease control rating” value with Septoria tritici (setting [4]) worked out at 96%. Moreover, the “Test H disease control rating” value in test [1] (setting [4]) came to 0%. Besides, the “Test I disease control rating” value in test [2] (setting [4]) was 46%. The “Test J disease control rating” value in test [3] (setting [4]) worked out at 98%.

Regarding `COc1cc(F)c(-c2c(Br)ncn2-c2ccc(C)nc2)c(F)c1` [compound 555], the “Test C disease control rating” value in the test with Botrytis cinerea (setting [4]) is reported as 100%. Besides, the “Test D disease control rating” value in the test with Alternaria solani (setting [4]) was 99%. Further, the “Test F disease control rating” value in the test on Septoria nodorum (setting [4]) is recorded as 69%. In addition, the “Test G disease control rating” value with Septoria tritici (setting [4]) was found to be 98%. Also, the “Test H disease control rating” value in test [1] (setting [4]) is reported as 0%. The “Test I disease control rating” value in test [2] (setting [4]) is given as 100%. Also, in test [3] (setting [4]), the “Test J disease control rating” value is 98%.

Turning to `COc1cc(F)c(-c2c(Cl)nc(Br)n2-c2ccc(OC(F)F)cc2)c(F)c1` [compound 546], the “Test C disease control rating” value with Botrytis cinerea (setting [4]) is 100%. Also, the “Test D disease control rating” value in the test with Alternaria solani (setting [4]) is reported as 100%. Further, the “Test F disease control rating” value in the test on Septoria nodorum (setting [4]) came to 99%. In addition, the “Test G disease control rating” value in the test with Septoria tritici (setting [4]) stood at 98%. In test [1] (setting [4]), the “Test H disease control rating” value is 0%. In addition, the “Test I disease control rating” value in test [2] (setting [4]) was determined as 100%. Besides, the “Test J disease control rating” value in test [3] (setting [4]) turned out to be 100%.

Take `COc1cc(F)c(-c2c(Cl)ncn2Cc2ccc(C)cc2)c(F)c1` [compound 274]: the “Test C disease control rating” value with Botrytis cinerea (200 ppm, 0 = no control) worked out at 100%. The “Test D disease control rating” value in the test on Alternaria solani (200 ppm, 0 = no control) was 100%. For the same compound, the “Test F disease control rating” value in the test on Septoria nodorum (200 ppm, 0 = no control) came to 51%. In the test with Septoria tritici (200 ppm, 0 = no control), the “Test G disease control rating” value stood at 94%. The “Test H disease control rating” value in test [1] (200 ppm, 0 = no control) is given as 48%. The “Test I disease control rating” value in test [2] (200 ppm, 0 = no control) was determined as 99%. Besides, the “Test J disease control rating” value in test [3] (200 ppm, 0 = no control) is listed as 77%.

As for “5-[4-chloro-5-(2,6-difluoro-4-methoxyphenyl)-1H-imidazol-1-yl]-2-(trifluoromethyl)pyridine [Example 34]”, the “Test C disease control rating” value in the test with Botrytis cinerea (40 ppm (marked *)) was 99* %. In the test on Alternaria solani (40 ppm (marked *)), the “Test D disease control rating” value is 100* %. Moreover, the “Test F disease control rating” value with Septoria nodorum (40 ppm (marked *)) was 99* %. In addition, the “Test G disease control rating” value with Septoria tritici (40 ppm (marked *)) is reported as 90* %. In addition, the “Test H disease control rating” value in test [1] (40 ppm (marked *)) is given as 91* %. Moreover, the “Test I disease control rating” value in test [2] (40 ppm (marked *)) is given as 100* %. Further, the “Test J disease control rating” value in test [3] (40 ppm (marked *)) was 100* %.

Consider `Fc1cccc(F)c1-c1c(Br)nc(CCBr)n1-c1ccc(Cl)cc1` [Compound 475, 4-bromo-2-(bromoethyl)-1-(4-chlorophenyl)-5-(2,6-difluorophenyl)-1H-imidazole], for which the pest or weed control at 200 ppm was 98% in the test on Botrytis cinerea (Botrytis cinerea, 120 h, 200 ppm, 0 = no control relative to controls); 26% in the test with Alternaria solani (Alternaria solani, 168 h, 200 ppm, 0 = no control relative to controls); 0% in the test with Septoria nodorum (Parastagonospora nodorum, 264 h, 200 ppm, 0 = no control relative to controls); 92% in the test on Septoria tritici (Zymoseptoria tritici, 504 h, 200 ppm, 0 = no control relative to controls); 0% in test [1] (Puccinia recondita, 96 h, 200 ppm, 0 = no control relative to controls); 87% in test [2] (Puccinia recondita, 168 h, 200 ppm, 0 = no control relative to controls). This compound registered a pest or weed control at 200 ppm in test [3] (Blumeria graminis, 168 h, 200 ppm, 0 = no control relative to controls) of 42%.
